Source: patent US12139487B2, “Compounds and uses thereof” (Foghorn Therapeutics Inc., priority 2022, dated 2024)

How the values were obtained:
BRG-1 = biological target: T1, BRG-1 (Homo sapiens, UniProt P51532); test: ATPase catalytic activity assay (ADP-Glo), BRG-1; format: biochemical; settings: Table 10, read-out: BRG1 IC50
T1 construct: made in house; host or cells: High Five insect cells
Outline: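 BRG-1 ATPase activity was measured in vitro by ADP-Glo. After the reaction, ADP-Glo Reagent depleted unconsumed ATP (40 min, room temperature), then Kinase Detection Reagent converted product ADP to ATP (60 min, room temperature), and luciferase luminescence was read.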

BRM = biological target: T2, BRM (Homo sapiens, UniProt P51531); test: ATPase catalytic activity assay (ADP-Glo), BRM; format: biochemical; settings: Table 10; for Ratio (BRG1 IC50 (μM) divided by BRM IC50 (μM)): ATPase assay, selectivity BRG1/BRM; for IC50: ATPase catalytic activity assay (ADP-Glo)
T2 construct: made in house; host or cells: High Five insect cells
T2 sequence (P51531 whole entry): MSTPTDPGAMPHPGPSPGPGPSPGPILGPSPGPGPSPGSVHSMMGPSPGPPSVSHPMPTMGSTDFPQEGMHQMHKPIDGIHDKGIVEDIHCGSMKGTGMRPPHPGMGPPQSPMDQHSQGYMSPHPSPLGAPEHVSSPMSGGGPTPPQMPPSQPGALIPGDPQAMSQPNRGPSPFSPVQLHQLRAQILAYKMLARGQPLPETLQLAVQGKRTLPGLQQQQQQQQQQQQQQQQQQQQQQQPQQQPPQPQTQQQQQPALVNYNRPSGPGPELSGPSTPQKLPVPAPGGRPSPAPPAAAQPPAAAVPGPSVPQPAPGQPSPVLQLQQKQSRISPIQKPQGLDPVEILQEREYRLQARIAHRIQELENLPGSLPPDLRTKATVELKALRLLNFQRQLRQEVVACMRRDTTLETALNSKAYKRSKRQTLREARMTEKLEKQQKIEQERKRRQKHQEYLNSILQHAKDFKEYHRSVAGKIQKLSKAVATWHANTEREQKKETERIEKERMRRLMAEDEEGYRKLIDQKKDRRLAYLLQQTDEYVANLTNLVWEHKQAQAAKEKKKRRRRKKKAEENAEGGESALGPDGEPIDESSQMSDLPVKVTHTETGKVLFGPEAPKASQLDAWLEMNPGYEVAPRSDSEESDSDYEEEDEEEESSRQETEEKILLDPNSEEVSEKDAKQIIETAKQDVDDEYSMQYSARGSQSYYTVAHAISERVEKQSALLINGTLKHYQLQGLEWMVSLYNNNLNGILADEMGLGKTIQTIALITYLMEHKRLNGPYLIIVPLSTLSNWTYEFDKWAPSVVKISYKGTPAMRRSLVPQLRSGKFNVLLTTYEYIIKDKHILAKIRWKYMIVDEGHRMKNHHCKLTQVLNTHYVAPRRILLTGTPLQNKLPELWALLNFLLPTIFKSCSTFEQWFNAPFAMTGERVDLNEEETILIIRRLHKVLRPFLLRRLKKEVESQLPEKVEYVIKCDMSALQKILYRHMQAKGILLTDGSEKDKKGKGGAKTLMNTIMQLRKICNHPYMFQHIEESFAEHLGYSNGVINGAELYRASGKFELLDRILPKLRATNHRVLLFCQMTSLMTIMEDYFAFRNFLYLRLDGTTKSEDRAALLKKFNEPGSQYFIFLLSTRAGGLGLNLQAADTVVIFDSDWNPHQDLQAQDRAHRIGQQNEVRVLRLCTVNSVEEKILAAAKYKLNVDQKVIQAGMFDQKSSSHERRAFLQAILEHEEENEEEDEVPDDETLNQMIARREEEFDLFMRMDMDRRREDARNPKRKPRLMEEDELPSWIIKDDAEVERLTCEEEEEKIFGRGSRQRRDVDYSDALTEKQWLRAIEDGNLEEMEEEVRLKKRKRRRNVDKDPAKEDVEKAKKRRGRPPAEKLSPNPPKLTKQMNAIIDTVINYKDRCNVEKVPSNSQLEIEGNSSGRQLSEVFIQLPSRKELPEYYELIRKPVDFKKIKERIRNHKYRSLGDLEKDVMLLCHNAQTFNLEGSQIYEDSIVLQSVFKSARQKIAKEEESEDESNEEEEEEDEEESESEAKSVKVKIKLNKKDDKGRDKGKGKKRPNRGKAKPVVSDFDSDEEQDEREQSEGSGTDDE
Outline: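 Reaction holds 30 nM BRM, 20 nM salmon sperm DNA and 400 μM ATP in 20 mM Tris pH 8, 20 mM MgCl2, 50 mM NaCl, 0.1% Tween-20, 1 mM DTT. Incubated 1 h at room temperature. ADP formed is detected by ADP-Glo luminescence.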

T1 sequence (P51532 whole entry): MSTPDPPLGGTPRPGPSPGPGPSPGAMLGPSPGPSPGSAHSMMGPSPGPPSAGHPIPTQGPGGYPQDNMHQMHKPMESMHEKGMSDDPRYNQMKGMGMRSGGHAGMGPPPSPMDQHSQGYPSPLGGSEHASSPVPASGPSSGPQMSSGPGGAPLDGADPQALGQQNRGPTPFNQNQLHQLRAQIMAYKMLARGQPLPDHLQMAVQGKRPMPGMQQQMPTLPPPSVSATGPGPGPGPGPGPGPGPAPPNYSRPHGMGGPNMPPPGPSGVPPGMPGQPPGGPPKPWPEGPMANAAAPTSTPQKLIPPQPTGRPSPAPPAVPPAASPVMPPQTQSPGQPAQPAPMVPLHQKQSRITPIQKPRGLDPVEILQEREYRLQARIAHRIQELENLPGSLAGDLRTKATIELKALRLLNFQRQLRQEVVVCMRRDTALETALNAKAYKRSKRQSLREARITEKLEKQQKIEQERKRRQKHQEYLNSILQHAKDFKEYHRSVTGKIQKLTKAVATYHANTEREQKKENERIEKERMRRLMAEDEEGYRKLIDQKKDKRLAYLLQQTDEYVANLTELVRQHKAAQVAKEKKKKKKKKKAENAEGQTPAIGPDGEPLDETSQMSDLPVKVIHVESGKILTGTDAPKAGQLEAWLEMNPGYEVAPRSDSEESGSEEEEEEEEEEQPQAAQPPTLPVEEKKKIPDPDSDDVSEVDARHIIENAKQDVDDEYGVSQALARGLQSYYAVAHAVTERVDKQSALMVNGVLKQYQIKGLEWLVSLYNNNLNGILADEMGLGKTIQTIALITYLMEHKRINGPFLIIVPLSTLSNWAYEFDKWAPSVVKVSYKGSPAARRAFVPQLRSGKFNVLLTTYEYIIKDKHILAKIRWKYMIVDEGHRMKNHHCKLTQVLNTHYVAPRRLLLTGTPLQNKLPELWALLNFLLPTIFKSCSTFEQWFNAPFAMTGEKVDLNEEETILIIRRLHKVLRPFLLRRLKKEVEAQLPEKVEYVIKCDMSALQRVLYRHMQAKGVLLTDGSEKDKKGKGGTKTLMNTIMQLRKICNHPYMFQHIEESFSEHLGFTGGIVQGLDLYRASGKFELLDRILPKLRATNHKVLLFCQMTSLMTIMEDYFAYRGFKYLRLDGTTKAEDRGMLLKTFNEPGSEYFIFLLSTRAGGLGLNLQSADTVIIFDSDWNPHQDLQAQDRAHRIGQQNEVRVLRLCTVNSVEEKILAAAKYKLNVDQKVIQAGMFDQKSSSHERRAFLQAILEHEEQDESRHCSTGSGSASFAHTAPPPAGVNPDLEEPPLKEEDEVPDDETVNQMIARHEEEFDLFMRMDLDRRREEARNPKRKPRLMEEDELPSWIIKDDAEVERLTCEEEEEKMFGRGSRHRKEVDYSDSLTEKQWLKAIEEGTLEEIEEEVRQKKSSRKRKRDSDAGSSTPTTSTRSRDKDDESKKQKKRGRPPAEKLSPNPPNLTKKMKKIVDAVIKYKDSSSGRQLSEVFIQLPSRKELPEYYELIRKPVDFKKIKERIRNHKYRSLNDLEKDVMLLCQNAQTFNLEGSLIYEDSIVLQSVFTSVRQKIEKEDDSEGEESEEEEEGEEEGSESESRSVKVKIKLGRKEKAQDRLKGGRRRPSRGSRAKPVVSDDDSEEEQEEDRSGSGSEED

Structure (SMILES)	IC50 (BRG-1) [nM]	Ratio (BRG1 IC50 (μM) divided by BRM IC50 (μM)) (BRM)	IC50 (BRM) [nM]
O=C(NCc1cc2nc(N3CCOc4cc(N5CCC5)cnc43)ccc2cn1)c1cc(F)c2c(c1)S(=O)(=O)[C@@H](F)CCO2 [Compound 190]	127	20.33	5.8
Cn1ccc2c(-c3ccc4cnc(CNC(=O)c5cc(F)c6c(c5)S(=O)(=O)[C@@H](F)CCO6)cc4n3)cccc21 [Compound 191]	62.1	10.64	5.8
C[C@@H]1C[C@@H]1c1cnc2c(c1)OCCN2c1ccc2cnc(CNC(=O)c3cc(F)c4c(c3)S(=O)(=O)[C@@H](F)CCO4)cc2n1 [Compound 192]	66.5	11.37	5.9
COc1nc(C)ccc1-c1ccc2cnc(CNC(=O)c3cc(F)c4c(c3)S(=O)(=O)[C@@H](F)CCO4)cc2n1 [Compound 193]	110	16.06	5.9
CCCc1ccnc2c1OCCN2c1ccc2cnc(CNC(=O)c3cc(F)c4c(c3)S(=O)(=O)[C@@H](F)CCO4)cc2n1 [Compound 194]	69.2	11.72	5.9
O=C(NCc1cc2nc(-c3ccnc([C@H]4CC4(F)F)n3)ccc2cn1)c1cc(F)c2c(c1)S(=O)(=O)[C@@H](F)CCO2 [Compound 195]	168	24.88	5.9
O=C(NCc1cc2cc(-c3cccc(OC(F)F)n3)ccc2nn1)c1cc(Cl)c2c(c1)S(=O)(=O)[C@@H](F)COC2 [Compound 196]	3840	38.53	99.8
COc1nc(C(F)F)ccc1-c1ccc2cnc(CNC(=O)c3ccc4c(c3)S(=O)(=O)[C@@H](F)CO[C@H]4C)cc2n1 [Compound 197]	84.6	14.25	6
C[C@H](F)c1cnc2c(c1)OCCN2c1ccc2cnc(CNC(=O)c3cc(F)c4c(c3)S(=O)(=O)[C@@H](F)CCO4)cc2n1 [Compound 198]	103	17.01	6
C[C@@H]1CN(c2cccc(-c3ccc4cnc(CNC(=O)c5ccc6c(c5)S(=O)(=O)[C@H](F)CO[C@H]6C)cc4n3)n2)C[C@H](C)O1 [Compound 200]	101	16.77	6.1
COCCc1cnc2c(c1)OCCN2c1ccc2cnc(CNC(=O)c3cc(F)c4c(c3)S(=O)(=O)[C@@H](F)CCO4)cc2n1 [Compound 201]	64	10.41	6.1
COc1nc([C@@H](F)CF)ccc1-c1ccc2cnc(CNC(=O)c3cc(F)c4c(c3)S(=O)(=O)[C@@H](F)CCO4)cc2n1 [Compound 202]	125	15.85	6.1
[2H]C1([2H])Oc2c(F)cc(C(=O)NCc3cc4nc(N5CCOc6ccc(C(F)F)nc65)ccc4cn3)cc2S(=O)(=O)[C@@]([2H])(F)C1([2H])[2H] [Compound 203]	92	14.89	6.1
O=C(NCc1cc2nc(N3CCOc4cc(N5CCC(F)CC5)cnc43)ccc2cn1)c1cc(F)c2c(c1)S(=O)(=O)[C@@H](F)CCO2 [Compound 204]	71.7	11.71	6.1
O=C(NCc1cc2nc(-c3cccc(OC(F)F)n3)ccc2cn1)c1cc(F)c2c(c1)S(=O)(=O)[C@@H](F)COC2 [Compound 205]	128	23.40	6.1
Cc1cc(C(=O)NCc2cc3nc(-c4cccc(OC(F)F)n4)ccc3cn2)cc2c1COC[C@H](F)S2(=O)=O [Compound 206]	197	31.39	6.2
O=C(NCc1cc2nc(N3CCOc4ccc([C@@H]5C[C@H]5F)nc43)ccc2cn1)c1cc(F)c2c(c1)S(=O)(=O)[C@@H](F)COC2 [Compound 207]	113	18.77	6.2
CO[C@@H]1C[C@H]1N(C)c1cccc(-c2ccc3cnc(CNC(=O)c4cc(F)c5c(c4)S(=O)(=O)[C@@H](F)COC5)cc3n2)n1 [Compound 215]	89.3	13.76	6.5
O=C(NCc1cc2nc(N3CCOc4cc(C5CC5)cnc43)ccc2cn1)c1cc(Cl)c2c(c1)S(=O)(=O)[C@@H](F)CCO2 [Compound 216]	148	21.18	6.5
O=C(NCc1cc2nc(N3CCCc4sc(C(F)F)nc43)ccc2cn1)c1cc(F)c2c(c1)S(=O)(=O)[C@@H](F)CCO2 [Compound 217]	63.4	9.68	6.5

Structure (SMILES)	IC50 (BRG-1) [nM]	Ratio (BRG1 IC50 (μM) divided by BRM IC50 (μM)) (BRM)	IC50 (BRM) [nM]
COc1nc(C(F)F)ccc1-c1ccc2cnc(CNC(=O)c3cc(Cl)c4c(c3)S(=O)(=O)[C@@H](F)COC4)cc2n1 [Compound 221]	178	27.18	6.9
C[C@@H]1CN(c2cccc(-c3ccc4cnc(CNC(=O)c5cc(F)c6c(c5)S(=O)(=O)[C@H](F)CO[C@@H]6C)cc4n3)n2)C[C@H](C)O1 [Compound 222]	79.8	11.79	7
C[C@H]1C[C@@H]1c1cnc2c(c1)OCCN2c1ccc2cnc(CNC(=O)c3cc(F)c4c(c3)S(=O)(=O)[C@@H](F)CCO4)cc2n1 [Compound 223]	102	13.44	7
COCc1cnc2c(c1)OCCN2c1ccc2cnc(CNC(=O)c3cc(F)c4c(c3)S(=O)(=O)[C@@H](F)CCO4)cc2n1 [Compound 224]	115	15.91	7.1
O=C(NCc1cc2nc(-c3cccc(OC(F)F)n3)ccc2cn1)c1cc(Cl)c2c(c1)S(=O)(=O)[C@@H](F)CCO2 [Compound 225]	461	49.95	7.1
[2H]C([2H])([2H])Oc1nscc1-c1ccc2cnc(CNC(=O)c3cc(F)c4c(c3)S(=O)(=O)[C@@H](F)CCO4)cc2n1 [Compound 226]	106	14.90	7.1
COc1nc(-c2ccc3cnc(CNC(=O)c4cc(F)c5c(c4)S(=O)(=O)[C@@H](F)CCO5)cc3n2)ccc1[C@H](F)CF [Compound 227]	70.5	9.91	7.1
O=C(NCc1cc2nc(-c3ccnc(N4CCC4)n3)ccc2cn1)c1cc(F)c2c(c1)S(=O)(=O)[C@@H](F)COC2 [Compound 228]	108	14.53	7.1
O=C(NCc1cc2nc(N3CCCc4cc(OC(F)F)cnc43)ccc2cn1)c1cc(F)c2c(c1)S(=O)(=O)[C@@H](F)CCO2 [Compound 229]	72.3	10.03	7.2
O=C(NCc1cc2cc(-c3cncc(C4CC4)n3)ccc2cn1)c1cc(F)c2c(c1)S(=O)(=O)[C@@H](F)CCO2 [Compound 230]	153	18.99	7.2
C[C@@H]1CN(c2cccc(-c3ccc4nnc(CNC(=O)c5cc(Cl)c6c(c5)S(=O)(=O)[C@@H](F)CCO6)cc4c3)n2)C[C@H](C)O1 [Compound 231]	102	14.03	7.2
O=C(NCc1cc2cc(-c3cccc(OC(F)F)n3)ccc2cn1)c1cc(Cl)c2c(c1)S(=O)(=O)[C@@H](F)COC2 [Compound 235, (2R)-6-chloro-N-[[6-[6-(difluoromethoxy)-2-pyridyl]-3-isoquinolyl]methyl]-2-fluoro-1,1-dioxo-3,5-dihydro-2H-4,1λ6-benzoxathiepine-8-carboxamide]	163	23.91	7.4
C[C@@H]1CCN1c1cnc2c(c1)CCCN2c1ccc2cnc(CNC(=O)c3cc(F)c4c(c3)S(=O)(=O)[C@@H](F)CCO4)cc2n1 [Compound 236]	160	21.61	7.4
Cc1cc(C(=O)NCc2cc3nc(N4CCOc5ccc(C(F)F)nc54)ccc3cn2)cc2c1COC[C@H](F)S2(=O)=O [Compound 237]	172	25.36	7.6
O=C(NCc1cc2nc(-c3cncc(C4CC4)n3)ccc2cn1)c1cc(F)c2c(c1)S(=O)(=O)[C@@H](F)COC2 [Compound 238]	132	17.11	7.6
CC#Cc1cnc2c(c1)OCCN2c1ccc2cnc(CNC(=O)c3cc(F)c4c(c3)S(=O)(=O)[C@@H](F)COC4)cc2n1 [Compound 239]	93.2	12.22	7.6
C[C@H](NC(=O)c1cc(F)c2c(c1)S(=O)(=O)[C@@H](F)CCO2)c1cc2nc(N3CCOc4cc(C5CC5)cnc43)ccc2cn1 [Compound 240]	185	19.83	7.6
O=C(NCc1cc2nc(N3CCOc4cc(N5CC(F)(F)C5)cnc43)ccc2cn1)c1cc(F)c2c(c1)S(=O)(=O)[C@@H](F)CCO2 [Compound 244]	245	25.74	7.8
COc1nc(C)ccc1-c1ccc2cnc(CNC(=O)c3cc(F)c4c(c3)S(=O)(=O)[C@@H](F)CCO4)cc2n1 [Compound 245]	166	17.91	7.8
